# Measured values from US8071383B2, “D-amino acid selection for soybean” (BASF Plant Science GmbH, priority 2006, dated 2011).
# Experiments:
# Format in all cases: cell-based, Glycine max
# soybean explants = assay: SELDA selection and co-cultivation hormones, transformation efficiency; conditions: for Ave TE (%) / Confirmed events / TE range (%): vector RLM407, D-serine selection
# Description: In the first experiment, the experimental design included 10 repetitions over time (cutting experiments by 3 researchers) with 4 different co-cultivation media (treatments) per repetition and a minimum of 50 explants per treatment. Solid co-cultivation was prepared as stated earlier except the hormone, BAP, was replaced with one of the 4 following hormones: 7.5 μM BAP, 1.0 μM kinetin, 5.0 μM kinetin, or 7.5 μM kinetin. In the second experiment, the experimental design included 3 repetitions over time (cutting experiments by 1 researcher) with 5 different co-cultivation media (treatments) per repetition and a minimum of 50 explants per treatment. Solid co-cultivation was prepared by replacing BAP with one of the 5 following hormones: 7.5 μM BAP, 1.0 μM kinetin, 3 μM kinetin, 5 μM kinetin, or 7 μM kinetin.
# For both experiments, explants were prepared, inoculated with 50 mL of liquid co-cultivation medium containing SHA017/pSB1 carrying vector RLM407 for 30 minutes, and then randomly placed onto 1 of 4 or 5 solid co-cultivation media treatments, respectively. The protocol was followed as stated above with the D-serine selection regime: one week on shoot induction without selection, 3 weeks on shoot induction medium with 7.5 mM D-serine, then 5 mM D-serine throughout shoot elongation. Only one shoot per explant was removed to eliminate regeneration of clones. Putative transformants were confirmed for the presence of the dsda gene using quantitative PCR (TaqMan) and the transformation efficiency (TE) was calculated using the formula: [(number of dsda positive TaqMan confirmed independent events/total number of explants inoculated (n))*100].
# [1] = test system: soybean primary node explants inoculated with REW008; assay: D-alanine and D-alanine/D-serine killing curves using primary node explants; conditions: for D-alanine Kill Curve-regeneration (%) after 3 weeks on SIM: Experiment 1; for D-alanine + 7.5 mM D-serine Kill Curve-regeneration (%) after 3 weeks on SIM: Experiment 2
# Description: Kill curves for D-alanine selection with and without 7.5 mM D-serine were conducted for future experiments using dao1 as a selectable marker gene. The combination of using D-alanine and D-serine was also performed for the dao1 gene which can metabolize both D-alanine and D-serine. The binary plasmids RET019 (Pactin-dao1, Pubi-gus) and REW008 (Pnos-bar, Pubi-gus) were used as a positive and a negative control, respectively, and the T-DNA mobilized into soybean using Agrobacterium rhizogenes strain SHA017pSB1.
# Explants were inoculated with Agrobacterium, co-cultivated for 5 days, then moved onto shoot induction medium with or without selection for one week. After that time, explants were transferred onto new SIM with selection.
# In experiment 1, D-alanine was added to the SIM medium at the following concentrations: 0, 3, 7.5, 10, 20, 30, and 50 mM.
# In experiment 2, D-alanine was added in the same concentrations with 7.5 mM D-serine.
# The experimental design was as follows: T(treatment)1: 7 explants inoculated with REW008 with 1 week recovery; T2: 7 explants inoculated with REW008 with no recovery; The results of the experiment are shown in Table 2b. […] This drop was not seen on explants with recovery until 20 mM D-alanine. When in combination with D-serine, the explants do have reduced regeneration at lower concentrations, between 7.5 and 10 mM.
# [2] = test system: soybean axillary meristem explants, Dairyland cultivar 98043; assay: Kill curve with D-serine on inoculated axillary meristem explants (shoot induction and elongation)
# Description: In order to establish an effective level of selection during shoot induction and elongation a broad range of D-Serine concentrations was initially explored. Soybean axillary meristem explants were prepared from 7 day-old-seedlings from the Dairyland cultivar 98043, as described above in Examples 1 and 3.
# Agrobacterium rhizogenes strain SHA017 with the Super Vir pSB1 plasmid and containing the binary plasmids pRET017 or pREW008 were prepared as described in example 2. pRET017 contains nosP-c-dsdA/na-nosT and pPcUBI-gusINT-nosT (Example 9). pREW008 contains nosP-bar-nosT and pPcUBI-gusINT-nosT and was used as a control vector (Example 9).
# Explants were handled as described above in example 4. After one week on shoot induction medium (SIM) medium with no selection, explants were transferred to SIM medium containing various concentrations of D-serine ranging from 0 to 15 to 30 to 45 mM. All regenerating explants (shoot pads) were transferred to shoot elongation media (SEM) containing 3 mM D-serine after three and six weeks of incubation. Elongating shoots were transferred to rooting medium (RM) medium and screened by GUS expression and Taqman analysis.
# [3] = test system: non-Agrobacterium infected soybean axillary meristem explants; assay: Killing curve for D-serine toxicity on non-inoculated seedling axillary meristem explants; conditions: 60 mM D-serine in SIM, 4 weeks
# Description: Killing curves for D-serine toxicity on non-Agrobacterium infected soybean tissues were performed on axillary meristem explants. Thirty explants were prepared as described above in example 1 and cultured on SIM containing either 0 mM, 3 μM, 30 μM, 300 μM, 3 mM, 30 mM, or 60 mM D-serine for a total of 4 weeks. After this time, the percent of explants with new shoot primordia, i.e. appearance of multiple shoots, were counted. In this experiment, a reduction in regeneration occurred between 3 and 30 mM and only 30% regeneration on explants exposed to 60 mM D-serine was seen (FIG. 1).
# [4] = Table 6 (experiment 1), 7.5 uM BAP in co-cultivation medium
# [5] = Table 7 (experiment 2), 7.5 uM BAP in co-cultivation medium
# [6] = Table 6 (experiment 1), 1 uM Kinetin in co-cultivation medium
# [7] = Table 6 (experiment 1), 5 uM Kinetin in co-cultivation medium
# [8] = Table 6 (experiment 1), 7.5 uM Kinetin in co-cultivation medium
# [9] = Table 7 (experiment 2), 1 uM Kinetin in co-cultivation medium
# [10] = Table 7 (experiment 2), 3 uM Kinetin in co-cultivation medium
# [11] = Table 7 (experiment 2), 5 uM Kinetin in co-cultivation medium
# [12] = Table 7 (experiment 2), 7 uM Kinetin in co-cultivation medium
compound,measurement,setting,value
"c1ccc(CNc2ncnc3nc[nH]c23)cc1 [BAP, 6-benzylaminopurine]",Ave TE (%),soybean explants; [4],0.4%
same,Confirmed events,soybean explants; [4],3
same,TE range (%),soybean explants; [4],0-2.5%
same,Ave TE (%),soybean explants; [5],1.3%
same,Confirmed events,soybean explants; [5],3
same,TE range (%),soybean explants; [5],0-2.5%
C[C@@H](N)C(=O)O [D-alanine],D-alanine Kill Curve-regeneration (%) after 3 weeks on SIM,"[1]; 3 mM D-alanine, T1: REW008 with 1 week recovery",100%
same,D-alanine Kill Curve-regeneration (%) after 3 weeks on SIM,"[1]; 3 mM D-alanine, T2: REW008 with no recovery",71%
same,D-alanine Kill Curve-regeneration (%) after 3 weeks on SIM,"[1]; 7.5 mM D-alanine, T1: REW008 with 1 week recovery",100%
same,D-alanine Kill Curve-regeneration (%) after 3 weeks on SIM,"[1]; 7.5 mM D-alanine, T2: REW008 with no recovery",86%
same,D-alanine Kill Curve-regeneration (%) after 3 weeks on SIM,"[1]; 10 mM D-alanine, T1: REW008 with 1 week recovery",100%
same,D-alanine Kill Curve-regeneration (%) after 3 weeks on SIM,"[1]; 10 mM D-alanine, T2: REW008 with no recovery",71%
same,D-alanine Kill Curve-regeneration (%) after 3 weeks on SIM,"[1]; 20 mM D-alanine, T1: REW008 with 1 week recovery",100%
same,D-alanine Kill Curve-regeneration (%) after 3 weeks on SIM,"[1]; 20 mM D-alanine, T2: REW008 with no recovery",27%
same,D-alanine Kill Curve-regeneration (%) after 3 weeks on SIM,"[1]; 30 mM D-alanine, T1: REW008 with 1 week recovery",29%
same,D-alanine Kill Curve-regeneration (%) after 3 weeks on SIM,"[1]; 30 mM D-alanine, T2: REW008 with no recovery",0%
same,D-alanine Kill Curve-regeneration (%) after 3 weeks on SIM,"[1]; 50 mM D-alanine, T1: REW008 with 1 week recovery",0%
same,D-alanine Kill Curve-regeneration (%) after 3 weeks on SIM,"[1]; 50 mM D-alanine, T2: REW008 with no recovery",0%
same,D-alanine + 7.5 mM D-serine Kill Curve-regeneration (%) after 3 weeks on SIM,"[1]; 3 mM D-alanine + 7.5 mM D-serine, T1: REW008 with 1 week recovery",100%
same,D-alanine + 7.5 mM D-serine Kill Curve-regeneration (%) after 3 weeks on SIM,"[1]; 3 mM D-alanine + 7.5 mM D-serine, T2: REW008 with no recovery",100%
same,D-alanine + 7.5 mM D-serine Kill Curve-regeneration (%) after 3 weeks on SIM,"[1]; 7.5 mM D-alanine + 7.5 mM D-serine, T1: REW008 with 1 week recovery",100%
same,D-alanine + 7.5 mM D-serine Kill Curve-regeneration (%) after 3 weeks on SIM,"[1]; 7.5 mM D-alanine + 7.5 mM D-serine, T2: REW008 with no recovery",71%
same,D-alanine + 7.5 mM D-serine Kill Curve-regeneration (%) after 3 weeks on SIM,"[1]; 10 mM D-alanine + 7.5 mM D-serine, T1: REW008 with 1 week recovery",71%
same,D-alanine + 7.5 mM D-serine Kill Curve-regeneration (%) after 3 weeks on SIM,"[1]; 10 mM D-alanine + 7.5 mM D-serine, T2: REW008 with no recovery",57%
same,D-alanine + 7.5 mM D-serine Kill Curve-regeneration (%) after 3 weeks on SIM,"[1]; 20 mM D-alanine + 7.5 mM D-serine, T1: REW008 with 1 week recovery",57%
same,D-alanine + 7.5 mM D-serine Kill Curve-regeneration (%) after 3 weeks on SIM,"[1]; 20 mM D-alanine + 7.5 mM D-serine, T2: REW008 with no recovery",0%
same,D-alanine + 7.5 mM D-serine Kill Curve-regeneration (%) after 3 weeks on SIM,"[1]; 30 mM D-alanine + 7.5 mM D-serine, T1: REW008 with 1 week recovery",0%
same,D-alanine + 7.5 mM D-serine Kill Curve-regeneration (%) after 3 weeks on SIM,"[1]; 30 mM D-alanine + 7.5 mM D-serine, T2: REW008 with no recovery",14%
same,D-alanine + 7.5 mM D-serine Kill Curve-regeneration (%) after 3 weeks on SIM,"[1]; 50 mM D-alanine + 7.5 mM D-serine, T1: REW008 with 1 week recovery",0%
same,D-alanine + 7.5 mM D-serine Kill Curve-regeneration (%) after 3 weeks on SIM,"[1]; 50 mM D-alanine + 7.5 mM D-serine, T2: REW008 with no recovery",0%
same,D-alanine concentration at which the regeneration frequency drops below 70%,[1]; explants exposed immediately after co-cultivation,30 mM
same,D-alanine concentration at which the regeneration frequency drops below 70%,[1]; explants with recovery,20 mM
N[C@H](CO)C(=O)O [D-serine],shoot elongation,"[2]; 3 mM D-Ser in SEM, explants coming from 30 or 45 mM D-Ser during shoot induction",no shoot elongation
same,Percent of explants surviving after three weeks in shoot elongation (SEM) + 3 mM D-serine,"[2]; D-Ser in SIM 0 mM, RET017",82.8%
same,Percent of explants surviving after three weeks in shoot elongation (SEM) + 3 mM D-serine,"[2]; D-Ser in SIM 0 mM, REW008",94.7%
same,Percent of explants surviving after three weeks in shoot elongation (SEM) + 3 mM D-serine,"[2]; D-Ser in SIM 15 mM, RET017",74.1%
same,Percent of explants surviving after three weeks in shoot elongation (SEM) + 3 mM D-serine,"[2]; D-Ser in SIM 15 mM, REW008",72.1%
same,Percent of explants regenerating after 3 weeks in shoot induction (SIM) medium,"[2]; D-Ser in SIM 15 mM, explants inoculated with RET017 (nosP-dsdA)",78.1%
same,Percent of explants regenerating after 3 weeks in shoot induction (SIM) medium,"[2]; D-Ser in SIM 15 mM, explants inoculated with REW008 (control vector)",76.9%
same,Percent of explants surviving after three weeks in shoot elongation (SEM) + 3 mM D-serine,"[2]; D-Ser in SIM 30 mM, RET017",33.6%
same,Percent of explants surviving after three weeks in shoot elongation (SEM) + 3 mM D-serine,"[2]; D-Ser in SIM 30 mM, REW008",34.5%
same,Percent of explants regenerating after 3 weeks in shoot induction (SIM) medium,"[2]; D-Ser in SIM 30 mM, explants inoculated with RET017 (nosP-dsdA)",61.2%
same,Percent of explants regenerating after 3 weeks in shoot induction (SIM) medium,"[2]; D-Ser in SIM 30 mM, explants inoculated with REW008 (control vector)",55.3%
same,Percent of explants surviving after three weeks in shoot elongation (SEM) + 3 mM D-serine,"[2]; D-Ser in SIM 45 mM, RET017",4.9%
same,Percent of explants surviving after three weeks in shoot elongation (SEM) + 3 mM D-serine,"[2]; D-Ser in SIM 45 mM, REW008",2.6%
same,Percent of explants regenerating after 3 weeks in shoot induction (SIM) medium,"[2]; D-Ser in SIM 45 mM, explants inoculated with RET017 (nosP-dsdA)",25.5%
same,Percent of explants regenerating after 3 weeks in shoot induction (SIM) medium,"[2]; D-Ser in SIM 45 mM, explants inoculated with REW008 (control vector)",21.9%
same,shoot elongation,[2]; explants exposed to 15 mM D-Ser during shoot induction,Few shoots elongated
same,D-alanine + 7.5 mM D-serine Kill Curve-regeneration (%) after 3 weeks on SIM,"[1]; 0 mM D-alanine + 7.5 mM D-serine, T1: REW008 with 1 week recovery",100%
same,D-alanine + 7.5 mM D-serine Kill Curve-regeneration (%) after 3 weeks on SIM,"[1]; 0 mM D-alanine + 7.5 mM D-serine, T2: REW008 with no recovery",100%
same,percent of explants with new shoot primordia (regeneration),[3],30%
c1coc(CNc2ncnc3[nH]cnc23)c1 [Kinetin],Ave TE (%),soybean explants; [6],1.4%
same,Confirmed events,soybean explants; [6],10
same,TE range (%),soybean explants; [6],0-6.4%
same,Ave TE (%),soybean explants; [7],2.3%
same,Confirmed events,soybean explants; [7],9
same,TE range (%),soybean explants; [7],0-4.2%
same,Ave TE (%),soybean explants; [8],2.7%
same,Confirmed events,soybean explants; [8],19
same,TE range (%),soybean explants; [8],0-9.8%
same,Ave TE (%),soybean explants; [9],3.7%
same,Confirmed events,soybean explants; [9],8
same,TE range (%),soybean explants; [9],1.3-8.1%
same,Ave TE (%),soybean explants; [10],2.5%
same,Confirmed events,soybean explants; [10],6
same,TE range (%),soybean explants; [10],2.3-2.7%
same,Ave TE (%),soybean explants; [11],1.8%
same,Confirmed events,soybean explants; [11],4
same,TE range (%),soybean explants; [11],1.2-3%
same,Ave TE (%),soybean explants; [12],2.2%
same,Confirmed events,soybean explants; [12],5
same,TE range (%),soybean explants; [12],0-5.2%
same,average transformation efficiency with kinetin in the co-cultivation media compared with BAP,soybean explants; both experiments,higher average transformation efficiencies
